Data as given in patent US6566363B2, “Pyrazole-thiazole compounds, pharmaceutical compositions containing them” (Agouron Pharmaceuticals, Inc., priority 2000, dated 2003).
pIC50, pKi: −log10 of the molar value. Where a name gives a salt, the structure may show the parent alone.

Assays:
CDK4/cyclin D3 = molecular target: T1, CDK4/cyclin D3 (Homo sapiens, UniProt P11802); experiment: Inhibition of CDK4/Cyclin D retinoblastoma kinase activity; assay type: biochemical; details: for pKi: apparent Ki, Rb fragment substrate, 25 μM ATP
T1 construct: made in house; host or cells: insect cells co-infected with baculovirus expression vectors
Procedure: (§1) Cyclin-dependent kinase activity was measured by quantifying the enzyme-catalyzed, time-dependent incorporation of radioactive phosphate from [^32P]ATP or [^33P]ATP into a protein substrate. […] Reactions were initiated with enzyme, incubated at 30° C., and terminated after 20 minutes by the addition of ethylenediaminetetraacetic acid (EDTA) to 250 mM. […] Radioactivity was quantified by exposing the dried membranes to a phosphorimager.
(§2) Apparent Ki values were measured by assaying enzyme activity in the presence of different inhibitor compound concentrations and subtracting the background radioactivity measured in the absence of enzyme.
Phosphorylated Rb substrate was captured by microfiltration on a nitrocellulose membrane and quantified using a phosphorimager as described above. For measurement of tight-binding inhibitors, the enzyme complex concentration was lowered to 5 nM, and the assay duration was extended to 60 minutes, during which the time-dependence of product formation was linear.

CDK2/cyclin A = molecular target: T2, CDK2/cyclin A (Homo sapiens, UniProt P24941); experiment: Inhibition of CDK2/Cyclin A retinoblastoma kinase activity; assay type: biochemical; details: for pKi: apparent Ki, Rb fragment substrate, 25 μM ATP
T2 construct: made in house; host or cells: CDK2: insect cells (baculovirus); cyclin A: E. coli, then limited proteolysis
Procedure: as §1, §2
A complex of CDK2 and proteolyzed cyclin A was prepared and purified by gel filtration. […] Ki values were measured as described above.

HCT 116 cell line = experiment: Inhibition of cell growth, MTT tetrazolium salt assay; assay type: cell-based
Procedure: Inhibition of cell growth was measured using the tetrazolium salt assay, which is based on the ability of viable cells to reduce 3-(4,5-dimethylthiazol-2-yl)-2,5-[2H]-diphenyltetrazolium bromide (MTT) to formazan (Mossman, Journal of Immunological Methods, vol. 65 (1983), pp. 55-58). The water-insoluble purple formazan product was then detected spectrophotometrically. The HCT 116 cell line was grown in 96-well plates. Cells were plated in the appropriate medium at a volume of 135 μl/well in McCoy's 5A Medium. Plates were incubated for four hours before addition of inhibitor compounds. Different concentrations of inhibitor compounds were added in 0.5% (v/v) dimethylsulfoxide (15 μL/well), and cells were incubated at 37° C. (5% CO2) for four to six days (depending on cell type). At the end of the incubation, MTT was added to a final concentration of 0.2 mg/mL, and cells were incubated for 4 hours more at 37° C. After centrifugation of the plates and removal of medium, the absorbence of the formazan (solubilized in dimethylsulfoxide) was measured at 540 nm. The concentration of inhibitor compound causing 50% inhibition of growth was determined from the linear portion of a semi-log plot of inhibitor concentration versus percentage inhibition. All results were compared to control cells treated only with 0.5% (v/v) dimethylsulfoxide.

T1 sequence (P11802 whole entry, the tested form may be a part): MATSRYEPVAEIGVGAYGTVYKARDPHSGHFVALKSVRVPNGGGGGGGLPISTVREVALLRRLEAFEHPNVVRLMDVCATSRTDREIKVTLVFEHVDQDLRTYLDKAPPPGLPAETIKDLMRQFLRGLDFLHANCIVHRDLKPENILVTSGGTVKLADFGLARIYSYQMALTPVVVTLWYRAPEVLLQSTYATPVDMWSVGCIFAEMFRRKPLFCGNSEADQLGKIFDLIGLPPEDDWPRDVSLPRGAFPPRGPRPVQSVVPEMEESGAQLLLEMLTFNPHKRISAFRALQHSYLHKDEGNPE
T1 sequence (P30281 whole entry partner, the tested form may be a part): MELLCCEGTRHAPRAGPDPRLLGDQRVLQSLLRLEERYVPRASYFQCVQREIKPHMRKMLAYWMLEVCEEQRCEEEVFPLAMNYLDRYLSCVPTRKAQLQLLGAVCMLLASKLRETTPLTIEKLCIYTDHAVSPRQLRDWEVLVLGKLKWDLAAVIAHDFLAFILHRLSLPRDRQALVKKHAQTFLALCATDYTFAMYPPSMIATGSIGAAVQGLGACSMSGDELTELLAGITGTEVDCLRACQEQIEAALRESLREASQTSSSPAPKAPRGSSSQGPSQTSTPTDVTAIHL

SMILES	pKi (CDK4/cyclin D3)	pKi (CDK2/cyclin A)	pIC50 (HCT 116 cell line; Homo sapiens, 144 h, HCT 116 cells, MTT, four to six days, read-out: IC50 HCT116)	inhibition of CDK4/D3 (entry in Ki column) (CDK4/cyclin D3; @ 1 μm)	inhibition of CDK2/A (entry in Ki column) (CDK2/cyclin A; @ 1 μm)	inhibition of HCT116 growth (entry in IC50 column) (HCT 116 cell line; @ 25 μm)
COc1ccc(Nc2nc3[nH]nc(-c4ccccc4)c3s2)cc1 [Compound 1, 5-(4-Methoxyphenylamino)-3-phenyl-1H-pyrazolo[4,5-d]thiazole Hydrobromic Acid Salt]	5.80	6.00	–	–	–	–
NS(=O)(=O)c1ccc(Nc2nc3[nH]nc(-c4ccccc4)c3s2)cc1 [Compound 2, 3-Phenyl-5-(4-sulfonamidophenylamino)-1H-pyrazolo[4,5-d]thiazole Hydrobromic Acid Salt]	6.41	7.47	< 4.60	–	–	–
NS(=O)(=O)c1ccc(Nc2nc3[nH]nc(-c4c(F)cccc4F)c3s2)cc1 [Compound 3, 3-(2,6-Difluorophenyl)-5-(4-sulfonamidophenylamino)-1H-pyrazolo [4,5-d]thiazole]	–	–	–	18% @ 1 μm	41% @ 1 μm	16% @ 25 μm
CN1CCN(c2ccc(Nc3nc4[nH]nc(-c5ccccc5)c4s3)cc2)CC1 [Compound 4, 5-[4-(4-Methyl-piperazin-1-yl)-phenylamino]-3-phenyl-1H-pyrazolo[4,5-d]thiazole Hydrobromic Acid Salt]	6.77	5.80	–	–	–	–
